US11384071B2, “Inhibitors of mechanotransduction to treat pain and modulate touch perception” (Max-Delbrück-Centrum für Molekulare Medizin in der …, priority 2016, dated 2022)

Legend:
[1] = test system: Spared tibial nerve injury (SNI) mice; assay: Spared nerve injury (SNI) model, paw withdrawal thresholds; format: in vivo, mouse; details: administration to the plantar skin
Excerpt: Mice were allowed to habituate to the testing apparatus (acrylic chambers 10×10 cm in size, suspended above a wired mesh grid) one hour prior to behavioral testing. Only once the subject was at rest and not moving, calibrated von-Frey hair monofilaments (Aesthesio® set of 20 monofilaments, Ugo Basil) were applied to the plantar surface of the hind paw in order to deliver target forces from 0.008 grams to 4 grams increasing in an approximately logarithmic scale. A single stimulus indicated by a slight bending of the filament lasted for two seconds unless the mouse withdrew its paw. In order to measure mechanosensitivity the up-and-down method described by Chaplan^13 was adapted as follows: Testing began with a filament delivering a target force of 0.4 g, but filaments were applied three times. A positive response was noted if the subject withdrew the paw to all three filament applications, so that the successively smaller filament was presented next. […] Paw withdrawal thresholds were calculated as median of 23 to 30 determined turning points of the particular force stimuli applied to the subject.

[2] = test system: dissociated mouse DRG neurons; assay: Action potential properties and electrical excitability of dissociated DRG neurons; format: cell-based
Description: (§1) Whole-cell, patch-clamp recordings were conducted as previously described 5-7, using patch pipettes with a tip resistance of 3-6 MΩ, filled with a solution of: 110 mM KCl, 10 mM NaCl, 1 mM MgCl2, 1 mM EGTA and 10 mM HEPES, adjusted to pH 7.3 with KOH. (For experiments on DRG neurons 10 mM QX-314 was added to the pipette to block voltage-gated sodium channels 8 Extracellular solutions contained 140 mM NaCl, 4 mM KCl, 2 mM CaCl2, 1 mM MgCl2, 4 mM glucose, 10 mM HEPES, adjusted to pH 7.4 with NaOH. A Zeiss 200 inverted microscope and an EPC-10 amplifier in combination with Patchmaster software was used, data was analyzed using Fitmaster software (HEKA Electronik GmbH, Germany). Pipette and membrane capacitance were compensated using the auto function of Patchmaster, series resistance was compensated by at least 60% to minimize voltage errors. Mechanical stimuli were applied using a polished glass probe driven by the MM3A micromanipulator (Kleindiek Nanotechnik, Germany). Mechanical stimuli were applied by either; indenting the cell soma or by culturing cells on elastomeric pillar arrays and applying the stimulus to the cell-substrate interface by deflecting an individual pilus.
Briefly, elastomeric pillar arrays of defined dimensions were cast in PDMS with an elasticity of 2 MPa. Cells cultured on these arrays were monitored using whole-cell patch-clamp whilst a glass probe was used to apply repeated deflections (of differing magnitudes) to an individual pilus directly beneath the cell. Images were obtained of the pilus before and after deflection and images were analyzed off-line to determine the exact deflection for each data point. Images were obtained using a 40×LD objective and a CoolSNAP EZ CCD camera. Images were analyzed off-line using Igor software (WaveMetrics, USA). The collection of stimulus-response data using pillar arrays generates data sets with variation in both x and y. In order to effectively compare groups for each cell studied we binned response data by stimulus size in the following bins: 0-10, 10-50, 50-100, 100-250, 250-500, 500-1000. For each cell, current amplitudes within each bin were averaged and then bins averaged between cells—we then tested for significance by testing whether the current amplitude for a given stimulation range (i.e. bin) differed between samples. A power analysis was used to determine that moderate to strong effects between samples could be detected with a sample size >4. […] To distinguish mechanoreceptors from nociceptors in the mixed population of acutely prepared DRG neurons, the shape of the generated action potential (AP) was used. […] For quantitative analysis of mechanosensitivity we measured responses in the most sensitive sub-population of mechanoreceptors, previously defined as Typell mechanoreceptors (Poole et al., 2014).
We evaluated the effects of OB-1 and OB-2 on mechanosensitive currents in acutely cultured mouse sensory neurons. Neurons were classified on the basis of their AP configuration as mechanoreceptors or nociceptors^2,21.

[3] = test system: RA-currents in mechanoreceptor sensory neurons; assay: Cell soma indentation, RA-mechanosensitive currents in sensory neurons; format: cell-based, mouse
Description: as §1
We evaluated the effects of OB-1 and OB-2 on mechanosensitive currents in acutely cultured mouse sensory neurons. […]

human STOML3 = target: T1, human STOML3 (Homo sapiens, UniProt Q8TAV4); assay: BiFC assay of human STOML3 self-association; format: cell-based
T1 construct: expressed in transfected cells; host or cells: HEK293 (general statement on the BiFC assay)
Excerpt: (§2) In mammals STOML3 belongs to a family of five structurally conserved membrane proteins, including stomatin, STOML1, STOML2, and podocin^10,12-16, all of which self-associate via their stomatin-domain (FIG. 8a)^10. Self-association of stomatin-domain proteins can be monitored in HEK293 cells using Bimolecular Fluorescence Complementation (BiFC) whereby N- and C-terminal halves of the YFP molecule are tagged to the prey and bait protein STOML3^2,17 (FIG. 1a). Irreversible association of the YFP fragments produces fluorescence that increases linearly over time (FIG. 1b).

ASIC3 = assay: pH-gated ASIC3 currents and stomatin modulation in CHO cells; format: cell-based
Description: To test the effect of compounds on stomatin modulation of ASIC currents CHO cells were transfected with vectors encoding Stomatin and ASIC3, in a ratio of 4:1 using lipofectamine, as per manufacturer's instructions. Cells were incubated with 20 μM OB-1 for 3 hours in extracellular buffer (see above), and OB-1 was maintained in the media during electrophysiological experiments. ASIC3 channels were gated by applying solutions of pH6 and pH4, and both the transient and sustained peak current density was measured.

STOML2 = target: T2, STOML2 (Mus musculus, UniProt Q99JB2); assay: BiFC assay of STOML2 self-association; format: cell-based
T2 construct: expressed in transfected cells; host or cells: HEK293 (general statement on the BiFC assay)
Description: (§3) FIG. 8: Effects of STOML3 modulating molecules on other Stomatin-domain proteins. (a) BiFC signal development observed when cells were transfected with Stomatin-VC/-VN, STOML1-VC/-VN, STOML2-VC/-VN, STOML3-VC/-VN or Podocin-VC/-VN expression constructs respectively. […] (b) OB-1 was tested at two different concentrations (2 μm and 20 μm) using the BiFC assay where wild type STOML3 was used as both bait and prey.
as §2

STOML1 = target: T3, STOML1 (Mus musculus, UniProt Q8CI66); assay: BiFC assay of STOML1 self-association; format: cell-based
T3 construct: expressed in transfected cells; host or cells: HEK293 (general statement on the BiFC assay)
Description: as §3, §2

Podocin = target: T4, Podocin (Mus musculus, UniProt Q91X05); assay: BiFC assay of podocin self-association; format: cell-based
T4 construct: expressed in transfected cells; host or cells: HEK293 (general statement on the BiFC assay)
Description: as §3, §2

T4 sequence (Q91X05 whole entry): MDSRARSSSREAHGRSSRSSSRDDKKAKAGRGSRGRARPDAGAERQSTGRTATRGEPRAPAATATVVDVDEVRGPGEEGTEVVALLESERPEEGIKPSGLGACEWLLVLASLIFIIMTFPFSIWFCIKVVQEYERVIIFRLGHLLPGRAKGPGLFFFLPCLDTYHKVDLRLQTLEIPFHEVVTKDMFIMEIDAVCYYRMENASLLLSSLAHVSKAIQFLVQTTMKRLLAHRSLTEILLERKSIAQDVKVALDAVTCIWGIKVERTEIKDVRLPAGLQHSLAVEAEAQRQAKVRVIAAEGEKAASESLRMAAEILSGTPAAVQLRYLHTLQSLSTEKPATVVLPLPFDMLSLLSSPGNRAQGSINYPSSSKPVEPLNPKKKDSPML
T3 sequence (Q8CI66 whole entry): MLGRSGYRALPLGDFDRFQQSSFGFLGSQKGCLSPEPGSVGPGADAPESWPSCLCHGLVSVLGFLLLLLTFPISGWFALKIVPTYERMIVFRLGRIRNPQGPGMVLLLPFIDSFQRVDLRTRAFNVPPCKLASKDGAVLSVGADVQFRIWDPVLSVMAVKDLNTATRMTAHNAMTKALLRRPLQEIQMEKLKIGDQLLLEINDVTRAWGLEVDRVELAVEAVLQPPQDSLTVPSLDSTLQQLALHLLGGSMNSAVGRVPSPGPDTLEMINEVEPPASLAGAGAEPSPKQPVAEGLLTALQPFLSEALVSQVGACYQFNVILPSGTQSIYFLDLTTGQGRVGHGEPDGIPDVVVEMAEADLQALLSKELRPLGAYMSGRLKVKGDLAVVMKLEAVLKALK
T1 sequence (Q8TAV4 whole entry): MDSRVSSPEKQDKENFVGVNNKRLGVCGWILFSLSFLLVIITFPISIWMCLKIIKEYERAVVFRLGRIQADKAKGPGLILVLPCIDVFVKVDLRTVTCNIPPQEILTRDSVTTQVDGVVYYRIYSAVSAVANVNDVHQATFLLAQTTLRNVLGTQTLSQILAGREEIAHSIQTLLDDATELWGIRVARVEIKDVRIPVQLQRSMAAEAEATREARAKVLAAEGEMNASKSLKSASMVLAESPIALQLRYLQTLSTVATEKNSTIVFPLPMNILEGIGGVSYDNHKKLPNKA
T2 sequence (Q99JB2 29-353): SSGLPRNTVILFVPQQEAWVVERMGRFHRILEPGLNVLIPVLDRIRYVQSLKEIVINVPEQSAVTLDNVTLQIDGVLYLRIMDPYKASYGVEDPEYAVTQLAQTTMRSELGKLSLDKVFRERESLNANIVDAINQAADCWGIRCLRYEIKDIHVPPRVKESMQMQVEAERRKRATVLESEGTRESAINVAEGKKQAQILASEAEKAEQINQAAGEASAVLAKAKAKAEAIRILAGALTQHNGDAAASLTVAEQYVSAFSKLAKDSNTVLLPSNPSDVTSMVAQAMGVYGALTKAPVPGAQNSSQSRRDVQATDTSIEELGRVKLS

## CCOC(=O)c1c(-c2ccccc2)oc2ccc(Oc3c([N+](=O)[O-])ncn3C)cc12 [OB-1, Ethyl 5-((1-methyl-4-nitro-1H-imidazol-5-yl)oxy)-2-phenylbenzofuran-3-carboxylate]
[1]
  allodynia: no reversal
[2]; Mechanoreceptors (n = 9)
  AHP (after-hyperpolarization potential): −62.3 ± 1.6 mV
  APamp (action potential amplitude): 97.8 ± 4.9 mV
  APtime (total duration of action potential): 11.90 ± 2.9 ms
  Input R: 40.8 ± 6.7 MΩ
  Threshold: 700.0 ± 305.9 pA
  Tpeak (Time to action potential peak): 7.5 ± 2.0 ms
  Trep (Time to repolarizing peak): 4.5 ± 1.7 ms
  Vrest (Resting potential): −56.6 ± 2.0 mV
[2]; Nociceptors (n = 12)
  AHP (after-hyperpolarization potential): −67.4 ± 1.3 mV
  APamp (action potential amplitude): 115.4 ± 4.0 mV
  APtime (total duration of action potential): 10.0 ± 1.5 ms
  Input R: 56.7 ± 5.2 MΩ
  Threshold: 1276.4 ± 256.0 pA
  Tpeak (Time to action potential peak): 5.0 ± 0.7 ms
  Trep (Time to repolarizing peak): 5.0 ± 1.1 ms
  Vrest (Resting potential): −59.5 ± 1.2 mV
[2]; treated at least 3 h with 20 μM
  parameters indicative of electrical excitability: no alteration
[3]
  inactivation time constant (τ2) of mechanically-gated currents: slowed
[3]; 12/21 neurons, control 21%
  neurons displaying no mechanosensitive current: ~60%
Human STOML3
  self-association of the human STOML3 protein (BiFC): inhibited
ASIC3; CHO cells expressing ASIC3, 20 μm
  ASIC3-mediated pH-evoked currents (transient and sustained): no effect
ASIC3; CHO cells, 20 μM, 3 hours
  negative modulation of ASIC3 mediated currents by mouse stomatin: no detectable effect
STOML2
  self-association of STOML2 (BiFC): effective inhibitor
STOML1
  self-association of STOML1 (BiFC): effective inhibitor
Podocin
  oligomerization of Podocin (BiFC): does not affect
